From US11230538B2, “Herbicides” (SYNGENTA PARTICIPATIONS AG, priority 2016, dated 2022)

Tests used:
Format in all cases: in vivo
Avena fatua (AVEFA) [1] = assay: B2 Post-emergence herbicidal activity; details: post-emergence application, rate 1000 g/ha, evaluated after 13 days
Outline: (§1)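 Post-emergence spray, 8-day-old potted seedlings; formulation acetone:water 50:50 + 0.5% Tween 20. Glasshouse 24/16 °C, 14 h light, 65% RH. Scored day 13, 0 (no damage) to 5 (total damage).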

[2] = tested on: Echinochloa crus-galli (ECHCG); assay: B1 Pre-emergence herbicidal activity; design: key to Pre-emergence herbicidal activity, ECHCG (damage score 0-5): 5=total damage to plant; 0=no damage to plant; details: pre-emergence application, rate 1000 g/ha, evaluated after 13 days
Outline: (§2)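 Pre-emergence spray one day after sowing; vehicle acetone/water 50:50 + 0.5% Tween 20. Glasshouse 24/16 °C, 14 h light, 65% RH, watered twice daily. Visual damage score at day 13, 0–5 scale (5 = total damage).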

Setaria fabenri (SETFA) = assay: B2 Post-emergence herbicidal activity; design: key: 5=total damage to plant; 0=no damage to plant; details: post-emergence application, rate 1000 g/ha, evaluated after 13 days
Outline: as §1

[3] = tested on: Alopecurus myosuroides (ALOMY); assay: B2 Post-emergence herbicidal activity; design: key: 5=total damage to plant; 0=no damage to plant; details: post-emergence application, rate 1000 g/ha, evaluated after 13 days
Outline: as §1

[4] = tested on: Triticum aestivium (TRZAW); assay: B2 Post-emergence herbicidal activity; design: key: 5=total damage to plant; 0=no damage to plant; details: post-emergence application, rate 1000 g/ha, evaluated after 13 days
Outline: as §1

Lolium perenne (LOLPE) [5] = assay: B2 Post-emergence herbicidal activity; details: post-emergence application, rate 1000 g/ha, evaluated after 13 days
Outline: as §1

Setaria fabenr (SETFA) = assay: B1 Pre-emergence herbicidal activity; design: key to Pre-emergence herbicidal activity, SETFA (damage score 0-5): 5=total damage to plant; 0=no damage to plant; details: pre-emergence application, rate 1000 g/ha, evaluated after 13 days
Outline: as §2

Lolium perenne (LOLPE) [6] = assay: B1 Pre-emergence herbicidal activity; design: key to Pre-emergence herbicidal activity, LOLPE (damage score 0-5): 5=total damage to plant; 0=no damage to plant; details: pre-emergence application, rate 1000 g/ha, evaluated after 13 days
Outline: as §2

[7] = tested on: Echinochloa crus-galli (ECHCG); assay: B2 Post-emergence herbicidal activity; design: key to Post-emergence herbicidal activity, ECHCG (damage score 0-5): 5=total damage to plant; 0=no damage to plant; details: post-emergence application, rate 1000 g/ha, evaluated after 13 days
Outline: as §1

[8] = tested on: Alopecurus myosuroides (ALOMY); assay: B1 Pre-emergence herbicidal activity; design: key: 5=total damage to plant; 0=no damage to plant; details: pre-emergence application, rate 1000 g/ha, evaluated after 13 days
Outline: as §2

[9] = tested on: Triticum aestivium (TRZAW); assay: B1 Pre-emergence herbicidal activity; design: key: 5=total damage to plant; 0=no damage to plant; details: pre-emergence application, rate 1000 g/ha, evaluated after 13 days
Outline: as §2

Avena fatua (AVEFA) [10] = assay: B1 Pre-emergence herbicidal activity; design: key: 5=total damage to plant; 0=no damage to plant; details: pre-emergence application, rate 1000 g/ha, evaluated after 13 days
Outline: as §2

## C=CCN(C(=O)CC)c1ccc(-c2cncc(F)c2)nc1C(F)(F)F [Compound C39]
Avena fatua (AVEFA) [1]
  Post-emergence herbicidal activity, AVEFA (damage score 0-5): 3
[2]
  Pre-emergence herbicidal activity, ECHCG (damage score 0-5): 4
Setaria fabenri (SETFA)
  Post-emergence herbicidal activity, SETFA (damage score 0-5): 5
[3]
  Post-emergence herbicidal activity, ALOMY (damage score 0-5): 0
[4]
  Post-emergence herbicidal activity, TRAZW (damage score 0-5): 1
Lolium perenne (LOLPE) [5]
  Post-emergence herbicidal activity, LOLPE (damage score 0-5): 2
Setaria fabenr (SETFA)
  Pre-emergence herbicidal activity, SETFA (damage score 0-5): 5
Lolium perenne (LOLPE) [6]
  Pre-emergence herbicidal activity, LOLPE (damage score 0-5): 1
[7]
  Post-emergence herbicidal activity, ECHCG (damage score 0-5): 5
[8]
  Pre-emergence herbicidal activity, ALOMY (damage score 0-5): 0
[9]
  Pre-emergence herbicidal activity, TRAZW (damage score 0-5): 0
Avena fatua (AVEFA) [10]
  Pre-emergence herbicidal activity, AVEFA (damage score 0-5): 2

## Cc1ccc(C(=O)Nc2ccc(-c3cncc(F)c3)nc2C(F)(F)F)s1 [Compound C52]
Avena fatua (AVEFA) [1]
  Post-emergence herbicidal activity, AVEFA (damage score 0-5): 4
[2]
  Pre-emergence herbicidal activity, ECHCG (damage score 0-5): 4
Setaria fabenri (SETFA)
  Post-emergence herbicidal activity, SETFA (damage score 0-5): 5
[3]
  Post-emergence herbicidal activity, ALOMY (damage score 0-5): 0
[4]
  Post-emergence herbicidal activity, TRAZW (damage score 0-5): 0
Lolium perenne (LOLPE) [5]
  Post-emergence herbicidal activity, LOLPE (damage score 0-5): 2
Setaria fabenr (SETFA)
  Pre-emergence herbicidal activity, SETFA (damage score 0-5): 5
Lolium perenne (LOLPE) [6]
  Pre-emergence herbicidal activity, LOLPE (damage score 0-5): 1
[7]
  Post-emergence herbicidal activity, ECHCG (damage score 0-5): 4
[8]
  Pre-emergence herbicidal activity, ALOMY (damage score 0-5): 1
[9]
  Pre-emergence herbicidal activity, TRAZW (damage score 0-5): 0
Avena fatua (AVEFA) [10]
  Pre-emergence herbicidal activity, AVEFA (damage score 0-5): 1

## O=C(Nc1ccc(-c2cncc(F)c2)nc1C(F)(F)F)c1ccccc1F [Compound C46]
Avena fatua (AVEFA) [1]
  Post-emergence herbicidal activity, AVEFA (damage score 0-5): 2
[2]
  Pre-emergence herbicidal activity, ECHCG (damage score 0-5): 2
Setaria fabenri (SETFA)
  Post-emergence herbicidal activity, SETFA (damage score 0-5): 4
[3]
  Post-emergence herbicidal activity, ALOMY (damage score 0-5): 0
[4]
  Post-emergence herbicidal activity, TRAZW (damage score 0-5): 0
Lolium perenne (LOLPE) [5]
  Post-emergence herbicidal activity, LOLPE (damage score 0-5): 1
Setaria fabenr (SETFA)
  Pre-emergence herbicidal activity, SETFA (damage score 0-5): 4
Lolium perenne (LOLPE) [6]
  Pre-emergence herbicidal activity, LOLPE (damage score 0-5): 1
[7]
  Post-emergence herbicidal activity, ECHCG (damage score 0-5): 3
[8]
  Pre-emergence herbicidal activity, ALOMY (damage score 0-5): 0
[9]
  Pre-emergence herbicidal activity, TRAZW (damage score 0-5): 0
Avena fatua (AVEFA) [10]
  Pre-emergence herbicidal activity, AVEFA (damage score 0-5): 1

## O=C(Nc1ccc(-c2cncc(F)c2)nc1C(F)(F)F)C1CCCC1 [Compound C111]
Avena fatua (AVEFA) [1]
  Post-emergence herbicidal activity, AVEFA (damage score 0-5): 4
[2]
  Pre-emergence herbicidal activity, ECHCG (damage score 0-5): 4
Setaria fabenri (SETFA)
  Post-emergence herbicidal activity, SETFA (damage score 0-5): 5
[3]
  Post-emergence herbicidal activity, ALOMY (damage score 0-5): 1
[4]
  Post-emergence herbicidal activity, TRAZW (damage score 0-5): 0
Lolium perenne (LOLPE) [5]
  Post-emergence herbicidal activity, LOLPE (damage score 0-5): 2
Setaria fabenr (SETFA)
  Pre-emergence herbicidal activity, SETFA (damage score 0-5): 5
Lolium perenne (LOLPE) [6]
  Pre-emergence herbicidal activity, LOLPE (damage score 0-5): 1
[7]
  Post-emergence herbicidal activity, ECHCG (damage score 0-5): 5
[8]
  Pre-emergence herbicidal activity, ALOMY (damage score 0-5): 1
[9]
  Pre-emergence herbicidal activity, TRAZW (damage score 0-5): 0
Avena fatua (AVEFA) [10]
  Pre-emergence herbicidal activity, AVEFA (damage score 0-5): 2

## CCC(=O)N(CC#N)c1ccc(-c2cncc(F)c2)nc1C(F)(F)F [Compound C57]
Avena fatua (AVEFA) [1]
  Post-emergence herbicidal activity, AVEFA (damage score 0-5): 2
[2]
  Pre-emergence herbicidal activity, ECHCG (damage score 0-5): 3
Setaria fabenri (SETFA)
  Post-emergence herbicidal activity, SETFA (damage score 0-5): 4
[3]
  Post-emergence herbicidal activity, ALOMY (damage score 0-5): 0
[4]
  Post-emergence herbicidal activity, TRAZW (damage score 0-5): 0
Lolium perenne (LOLPE) [5]
  Post-emergence herbicidal activity, LOLPE (damage score 0-5): 2
Setaria fabenr (SETFA)
  Pre-emergence herbicidal activity, SETFA (damage score 0-5): 4
Lolium perenne (LOLPE) [6]
  Pre-emergence herbicidal activity, LOLPE (damage score 0-5): 0
[7]
  Post-emergence herbicidal activity, ECHCG (damage score 0-5): 4
[8]
  Pre-emergence herbicidal activity, ALOMY (damage score 0-5): 0
[9]
  Pre-emergence herbicidal activity, TRAZW (damage score 0-5): 0
Avena fatua (AVEFA) [10]
  Pre-emergence herbicidal activity, AVEFA (damage score 0-5): 1

## CC(C)C(=O)Nc1ccc(-c2cncnc2)nc1C(F)(F)F [Compound C8]
Avena fatua (AVEFA) [1]
  Post-emergence herbicidal activity, AVEFA (damage score 0-5): 4
[2]
  Pre-emergence herbicidal activity, ECHCG (damage score 0-5): 4
Setaria fabenri (SETFA)
  Post-emergence herbicidal activity, SETFA (damage score 0-5): 5
[3]
  Post-emergence herbicidal activity, ALOMY (damage score 0-5): 3
[4]
  Post-emergence herbicidal activity, TRAZW (damage score 0-5): 2
Lolium perenne (LOLPE) [5]
  Post-emergence herbicidal activity, LOLPE (damage score 0-5): 2
Setaria fabenr (SETFA)
  Pre-emergence herbicidal activity, SETFA (damage score 0-5): 5
Lolium perenne (LOLPE) [6]
  Pre-emergence herbicidal activity, LOLPE (damage score 0-5): 2
[7]
  Post-emergence herbicidal activity, ECHCG (damage score 0-5): 4
[8]
  Pre-emergence herbicidal activity, ALOMY (damage score 0-5): 0
[9]
  Pre-emergence herbicidal activity, TRAZW (damage score 0-5): 0
Avena fatua (AVEFA) [10]
  Pre-emergence herbicidal activity, AVEFA (damage score 0-5): 3

## COCC(=O)Nc1ccc(-c2cncc(F)c2)nc1C#N [Compound C114, N-[2-cyano-6-(5-fluoro-3-pyridyl)-3-pyridyl]-2-methoxy-acetamide]
Avena fatua (AVEFA) [1]
  Post-emergence herbicidal activity, AVEFA (damage score 0-5): 2
[2]
  Pre-emergence herbicidal activity, ECHCG (damage score 0-5): 4
Setaria fabenri (SETFA)
  Post-emergence herbicidal activity, SETFA (damage score 0-5): 5
[3]
  Post-emergence herbicidal activity, ALOMY (damage score 0-5): 1
[4]
  Post-emergence herbicidal activity, TRAZW (damage score 0-5): 1
Lolium perenne (LOLPE) [5]
  Post-emergence herbicidal activity, LOLPE (damage score 0-5): 1
Setaria fabenr (SETFA)
  Pre-emergence herbicidal activity, SETFA (damage score 0-5): 5
Lolium perenne (LOLPE) [6]
  Pre-emergence herbicidal activity, LOLPE (damage score 0-5): 0
[7]
  Post-emergence herbicidal activity, ECHCG (damage score 0-5): 4
[8]
  Pre-emergence herbicidal activity, ALOMY (damage score 0-5): 0
[9]
  Pre-emergence herbicidal activity, TRAZW (damage score 0-5): 0
Avena fatua (AVEFA) [10]
  Pre-emergence herbicidal activity, AVEFA (damage score 0-5): 1

## Cc1nc(-c2cncc(F)c2)ccc1N(C(=O)C(C)C)C(=O)C(C)C [Compound C1]
Avena fatua (AVEFA) [1]
  Post-emergence herbicidal activity, AVEFA (damage score 0-5): 3
[2]
  Pre-emergence herbicidal activity, ECHCG (damage score 0-5): 5
Setaria fabenri (SETFA)
  Post-emergence herbicidal activity, SETFA (damage score 0-5): 5
[3]
  Post-emergence herbicidal activity, ALOMY (damage score 0-5): 1
[4]
  Post-emergence herbicidal activity, TRAZW (damage score 0-5): 1
Lolium perenne (LOLPE) [5]
  Post-emergence herbicidal activity, LOLPE (damage score 0-5): 4
Setaria fabenr (SETFA)
  Pre-emergence herbicidal activity, SETFA (damage score 0-5): 5
Lolium perenne (LOLPE) [6]
  Pre-emergence herbicidal activity, LOLPE (damage score 0-5): 1
[7]
  Post-emergence herbicidal activity, ECHCG (damage score 0-5): 5
[8]
  Pre-emergence herbicidal activity, ALOMY (damage score 0-5): 0
[9]
  Pre-emergence herbicidal activity, TRAZW (damage score 0-5): 1
Avena fatua (AVEFA) [10]
  Pre-emergence herbicidal activity, AVEFA (damage score 0-5): 2

## Cc1nc(-c2cncc(F)c2)ccc1NC(=O)C(C)C [Compound C3]
Avena fatua (AVEFA) [1]
  Post-emergence herbicidal activity, AVEFA (damage score 0-5): 3
[2]
  Pre-emergence herbicidal activity, ECHCG (damage score 0-5): 4
Setaria fabenri (SETFA)
  Post-emergence herbicidal activity, SETFA (damage score 0-5): 5
[3]
  Post-emergence herbicidal activity, ALOMY (damage score 0-5): 1
[4]
  Post-emergence herbicidal activity, TRAZW (damage score 0-5): 1
Lolium perenne (LOLPE) [5]
  Post-emergence herbicidal activity, LOLPE (damage score 0-5): 3
Setaria fabenr (SETFA)
  Pre-emergence herbicidal activity, SETFA (damage score 0-5): 5
Lolium perenne (LOLPE) [6]
  Pre-emergence herbicidal activity, LOLPE (damage score 0-5): 1
[7]
  Post-emergence herbicidal activity, ECHCG (damage score 0-5): 5
[8]
  Pre-emergence herbicidal activity, ALOMY (damage score 0-5): 0
[9]
  Pre-emergence herbicidal activity, TRAZW (damage score 0-5): 0
Avena fatua (AVEFA) [10]
  Pre-emergence herbicidal activity, AVEFA (damage score 0-5): 0

## Cc1ccsc1C(=O)Nc1ccc(-c2cncc(F)c2)nc1C(F)(F)F [Compound C51]
Avena fatua (AVEFA) [1]
  Post-emergence herbicidal activity, AVEFA (damage score 0-5): 2
[2]
  Pre-emergence herbicidal activity, ECHCG (damage score 0-5): 3
Setaria fabenri (SETFA)
  Post-emergence herbicidal activity, SETFA (damage score 0-5): 4
[3]
  Post-emergence herbicidal activity, ALOMY (damage score 0-5): 0
[4]
  Post-emergence herbicidal activity, TRAZW (damage score 0-5): 0
Lolium perenne (LOLPE) [5]
  Post-emergence herbicidal activity, LOLPE (damage score 0-5): 1
Setaria fabenr (SETFA)
  Pre-emergence herbicidal activity, SETFA (damage score 0-5): 4
Lolium perenne (LOLPE) [6]
  Pre-emergence herbicidal activity, LOLPE (damage score 0-5): 0
[7]
  Post-emergence herbicidal activity, ECHCG (damage score 0-5): 2
[8]
  Pre-emergence herbicidal activity, ALOMY (damage score 0-5): 0
[9]
  Pre-emergence herbicidal activity, TRAZW (damage score 0-5): 0
Avena fatua (AVEFA) [10]
  Pre-emergence herbicidal activity, AVEFA (damage score 0-5): 0
